Here are results for 6 molecules from paper PMC8346996, “Antiradical Properties of N-Oxide Surfactants—Two in One” (International Journal of Molecular Sciences, 2021).

Molecules are shown by their SMILES. Values after ≈ are worked out from the molar mass of the structure shown. Read-outs that look alike come from different tables or passages of the source. Marks after values point to notes of the source that are not given here.

Details of series [1]: method as in PMID 23098238. As to conditions: cited from earlier work.
Series [2] is described as follows: DPPH• scavenging kinetics by UV-vis, pseudo-first-order conditions. The settings on record: for second-order rate constant k2 for the reaction with DPPH•: ethanol, 298 K, deaerated, DPPH• 2.2 × 10^−4 M, surfactant 0.012-0.12 M; for k2 higher in comparison with the CnPDA homolog: reaction with DPPH•. Here is the method: After confirming that the absorption maximum at 517 nm of DPPH• is outside the surfactant’s absorption range, the rate of the DPPH•-scavenging reaction of the N-oxides was measured by monitoring the decrease in absorbance of this maximum. To ensure that the decay of DPPH• obeyed pseudo-first-order kinetics, the concentration of surfactants was at least a 54-fold excess of the DPPH• concentration. As explained in SI, the calculated pseudo-first-order rate constants, kobs, increased linearly with the concentration of Cn(DAPANO)2 and CnPDA (shown in SI). The second-order rate constants k2 for the reaction between the N-oxides and DPPH• were determined from the slopes of the linear plots of kobs vs. the concentration of the surfactants and are given in Figure 6.
The measurements were done under deaerated conditions at 298 K in ethanol solutions (2 mL in a 10 mm quartz cuvette) containing DPPH^• (C = 2.2 × 10^−4 M) and a surfactant at each of five different concentrations, namely C1 = 0.12 M, C2 = 0.09 M, C3 = 0.06 M, C4 = 0.03 M, and C5 = 0.012 M. UV−vis spectral changes associated with the undergoing reaction were monitored at 516 nm, using a Varian Cary 50Conc UV−visible Spectrophotometer. The following equations of the calibration curve were used to calculate DPPH^• concentrations in the reaction system: Abs = 4.0189 × C[mM] + 0.00813 (R^2 = 0.9998). The rate of DPPH^• scavenging reaction was determined using pseudo-first-order kinetics (the concentration of CnPDA or Cn(DAPANO)2 was maintained at more than 54-fold excess of the radical concentration); further details are given as Supporting Information.
(In general: The DPPH test is a chemical assay of radical scavenging.)

Details of series [3]: method as in PMID 23098238. The settings on record: cited from earlier work. This is another data set of the same source.
A short description of series [4]: MTT cell viability assay, HaCaT. The series is classed as cell-based, human. As to conditions: human, HaCaT cells (immortalized human keratinocytes), evaluated for CMC. The method, then:
(§1) HaCaT (immortalized human keratinocytes from histologically normal skin) cell line was obtained from the CLS Cell Lines Service GmbH (Eppelheim, Germany). HGFs (human gingival fibroblasts) derive from primary cell culture. The cells were isolated according to the procedure described by Saczko et al. and patented by Saczko et al.. Cells were grown in plastic cell culture flasks in Dulbecco’s Modified Eagle’s Medium, supplemented with fetal bovine serum (FBS, Lonza, Morrisville, NC, USA), with 100 IU/mL penicillin, 50 mg streptomycin, and 125 μg amphotericin B (Sigma). The cells were maintained in a humidified atmosphere at 37 °C and 5% CO2. The cells were regularly maintained by systematic passaging. For experimental purposes, the cells were removed by trypsinization (0.25% Trypsin-EDTA, Sigma).
(§2) MTT (Sigma) test was used to determine the viability of HaCaT and HGFs cells. The MTT assay was used to test mitochondrial metabolic functioning. Cells were seeded on flat bottom 96-well tissue culture plates at a density of 10^4 cells/well and allowed to grow in a CO2 incubator at 37 °C overnight. In the case of these studies, the culture medium was removed, surfactant solutions were added, and the cells were exposed for 24 and 48 h to compounds at doses ranging from 50 to 2000 μg/mL. After incubation, MTT assay was applied according to the manufacturer protocol. The absorbance was measured at 570 nm using a multiwell plate reader (EnSpire Multimode Reader, Perkin Elmer). Each experiment was performed in a few independent repetitions. Mean values and standard deviations of all results were calculated. The final results were expressed as the percentage of mitochondrial function relative to untreated control cells.
(Formazan colour is commonly taken as a measure of viable cells.)

The test system of series [5] is normal human keratinocytes (HaCaT). Description: MTT cell viability assay, HaCaT. The series is classed as cell-based. As to conditions: Homo sapiens, HaCaT, MTT. Here is the method:
as §1, §2

A short description of series [6]: MTT cell viability assay, HGFs. The series is classed as cell-based, human. As to conditions: human, primary human gingival fibroblasts (HGFs), evaluated for CMC; for viability at 24 h: read-out: Viability 24 h HGF’s; for viability at 48 h: read-out: Viability 48 h HGF’s. Here is the method:
as §1, §2

The test system of series [7] is primary fibroblasts (HGFs). Description: MTT cell viability assay, HGFs. It is filed as cell-based, human. As to conditions: Homo sapiens, Fibroblast, MTT. Here is the method:
as §1, §2

Series [8] is described as follows: Hydrodynamic radius of micelles by dynamic light scattering (DLS). It is filed as physicochemical. As to conditions: 298 K, surfactant at 100 x CMC. Here is the method:
The hydrodynamic diameter for CnPDA was determined by the DLS method. The measurements were performed using a Nano Series Zetasizer from Malvern Instruments (UK) with a detection angle of 173°, equipped with a He−Ne laser (632.8 nm) and an ALV 5000 multibit multitau autocorrelator. Before the measurements, the samples were filtered through a filter (with a pore size of 0.2 μm) directly into the optical cell to remove any impurities. All of the DLS measurements were performed at 298 ± 0.1 K and at a surfactant concentration a hundred times higher than the critical micelle concentration (CMC). Each value was obtained as the average of three runs with at least 10 measurements. The DTS software (Nano) was used to evaluate the data.

In another series the test system is human keratinocytes. Nature of the series: ROS evaluation (DCF assay), human keratinocytes. The series is classed as cell-based. The settings on record: after ROS induction by DHTTP; surfactant in CMC concentration. The method, then:
(§3) Antioxidative properties of the tested surfactant were evaluated. To induce ROS production, a DPPH solution was prepared (C = 2.55 × 10^−3 mol/dm3). Normal fibroblasts and keratinocytes were seeded on flat bottom 96-well tissue culture plates at a density of 10^4 cells/well and allowed to grow in a CO2 incubator at 37°C overnight. Then, culture medium was removed and 200 µL of DPPH solution in DMEM was added to the plate and left for 1 h in a CO2 incubator at 37 °C. After incubation, DPPH solution was removed and ROS production was determined using DCF assay (Life Technologies, Warsaw, Poland). The DCF assay was conducted with 6-carboxy-2′,7′-dichlorodihydrofluorescein diacetate 2′,7′-dichlorofluorescein (carboxy-H2DCFDA). After deacetylation of H2DCFDA to H2DCF or carboxy-H2DCFDA to carboxy-H2DCF, cellular ROS oxidize H2DCF and carboxy-H2DCF to 2′,7′-dichlorofluorescein (DCF) and 2′,7′-carboxydichlorofluorescein (carboxy-DCF), respectively. The carboxy-H2DCFDA was dissolved in sterile DMSO to generate a stock solution of 50 µg/mL. For experiments, the stock solution of carboxy-H2DCFDA was brought to room temperature in the dark and then diluted in a cell culture medium without FBS. After washout of the incubation medium from cells with PBS, the reagent was added to cell culture to a final concentration of 10 µM and for 30 min was incubated at 37 °C in darkness. After incubation, excitation wavelength of 495 nm and emission wavelength of 530 nm were used by a multiwell scanning spectrophotometer (EnSpire Perkin Elmer, Krakow, Poland). In the next stage, surfactant solutions in CMC concentrations were added into cells after 1 h incubation with DHTTP solution. Cells were incubated, and ROS were detected 30 min by a multiwell scanning spectrophotometer (EnSpire Perkin Elmer, Poland).

Another series relates to primary fibroblasts. Nature of the series: ROS evaluation (DCF assay), primary fibroblasts. The series is classed as cell-based, human. The settings on record: after ROS induction by DHTTP; surfactant in CMC concentration. The method, then:
as §3

[9] abbreviates: 24 h incubation, read-out: IC50 HaCaT 24 h.
Setting [10] is: 48 h incubation, read-out: IC50 HaCaT 48 h.
Setting [11] is: 24 h incubation, read-out: IC50 HGFs 24 h.
[12] abbreviates: 48 h incubation, read-out: IC50 HGFs 48 h.

As to `CCCCCCCCCC(=O)N(CCC[N+](C)(C)[O-])CCC[N+](C)(C)[O-]` [C10(DAPANO)2], the CMC in series [1] was 3.0·10^−2 a M. Moreover, in series [2], the “second-order rate constant k2 for the reaction with DPPH•” value (“second-order rate constant k2” below) is 0.000947 M⁻¹ s⁻¹. Besides, in [2], the “k2 higher in comparison with the CnPDA homolog” value is reported as 11%. Also, the “RH DLS” value in series [3] is reported as 1.75 ^a nm. For the same molecule, the results for the viability at 24 h in series [4] and in series [6] were 8.1% and 16.2%, respectively. Besides, the viability (usually a read-out of living cells in per cent, often relative to untreated cells) at 48 h in [4] turned out to be 18.2%; in series [6], 9.7%. Further, the IC50 (usually the concentration that inhibits the measured activity by half) in [5] (setting [9]) amounted to 98 µg/mL (≈ 262 µM); in series [5] (setting [10]) it was 97 µg/mL (≈ 260 µM); in [7] (setting [11]) it was 34.5 µg/mL (≈ 92.3 µM); in [7] (setting [12]), 1.9 µg/mL (≈ 5.09 µM).
On to `CCCCCCCCCC(=O)NCCC[N+](C)(C)[O-]` [C10PDA], for which, in [8], the “RH DLS” value turned out to be 1.67 nm. Also, in series [2], the “second-order rate constant k2” value was 0.000853 M⁻¹ s⁻¹. Moreover, the viability at 24 h in series [4] was 34.7%; in series [6], 98.6%. The figures for the viability at 48 h in series [4] and in series [6] were 84.8% and 20.2%, respectively. Further, the IC50 in series [5] (setting [9]) stood at 43.8 µg/mL (≈ 161 µM); in [5] (setting [10]), 41.5 µg/mL (≈ 152 µM); in series [7] (setting [11]), 77.9 µg/mL (≈ 286 µM); in series [7] (setting [12]) it was 38.7 µg/mL (≈ 142 µM).
Consider `CCCCCCCCCCCCCC(=O)N(CCC[N+](C)(C)[O-])CCC[N+](C)(C)[O-]` [C14(DAPANO)2], for which the CMC in [1] is listed as 8.0·10^−4 a M. The “second-order rate constant k2” value in [2] worked out at 0.00117 M⁻¹ s⁻¹. Besides, the “k2 higher in comparison with the CnPDA homolog” value in series [2] was 16%. Besides, the “radical (ROS) level, DCF fluorescence” value in the series with human keratinocytes and in the series with primary fibroblasts was “not significant decrease in radical level” in each case. Also, the “RH DLS” value in [3] was 2.28 ^a nm. For the same molecule, the viability at 24 h is 11.3% in series [4] and 17.7% in series [6]. The results for the viability at 48 h in series [4] and in series [6] were 4.5% and 11.5%, respectively. The 50% inhibitory concentration (IC50) is 32 µg/mL (≈ 74.5 µM) in series [5] (setting [9]), 17 µg/mL (≈ 39.6 µM) in series [5] (setting [10]), 68.5 µg/mL (≈ 159 µM) in series [7] (setting [11]) and 0.89 µg/mL (≈ 2.07 µM) in series [7] (setting [12]).
Take `CCCCCCCCCCCCCC(=O)NCCC[N+](C)(C)[O-]` [C14PDA]: in [8], the “RH DLS” value is reported as 2.19 nm. In series [2], the “second-order rate constant k2” value was 0.00101 M⁻¹ s⁻¹. For the same molecule, the “radical (ROS) level, DCF fluorescence” value in the series with human keratinocytes and with primary fibroblasts was “most significant decrease of fluorescence level” throughout. Besides, the figures for the viability at 24 h in series [4] and in series [6] were 81.1% and 104%, respectively. The values for the viability at 48 h in series [4] and in series [6] were 119% and 78.2%, respectively. The half-maximal inhibitory concentration (IC50) in series [5] (setting [9]) came to 48.1 µg/mL (≈ 146 µM); in series [5] (setting [10]), 9.9 µg/mL (≈ 30.1 µM); in series [7] (setting [11]), 69.9 µg/mL (≈ 213 µM); in series [7] (setting [12]) it was 1.6 µg/mL (≈ 4.87 µM).
In the case of `CCCCCCCCCCCCCCCC(=O)N(CCC[N+](C)(C)[O-])CCC[N+](C)(C)[O-]` [C16(DAPANO)2], the CMC in series [1] was 1.5·10^−4 a M. The “second-order rate constant k2” value in series [2] amounted to 0.00138 M⁻¹ s⁻¹. Also, in series [2], the “k2 higher in comparison with the CnPDA homolog” value is given as 10%. The “radical (ROS) level, DCF fluorescence” value in the series with human keratinocytes and with primary fibroblasts was “not significant decrease in radical level” in each case. In addition, the “RH DLS” value in series [3] is 2.38 ^a nm. Further, the viability at 24 h in [4] came to 14.7%; in series [6], 27.8%. In addition, the viability at 48 h in [4] was determined as 3.9%; in series [6], 12.3%. Further, the half-maximal inhibitory concentration (IC50) in series [5] (setting [9]) was 29 µg/mL (≈ 63.4 µM); in [5] (setting [10]), 18.2 µg/mL (≈ 39.8 µM); in [7] (setting [11]), 14.3 µg/mL (≈ 31.2 µM); in [7] (setting [12]), 0.76 µg/mL (≈ 1.66 µM).
Consider `CCCCCCCCCCCCCCCC(=O)NCCC[N+](C)(C)[O-]` [C16PDA], for which the “RH DLS” value in series [8] was determined as 2.27 nm. In addition, in series [2], the “second-order rate constant k2” value stood at 0.00125 M⁻¹ s⁻¹. Further, the viability at 24 h in series [4] worked out at 140%; in [6], 96.9%. The viability at 48 h worked out at 123% in series [4] and 81.7% in [6]. Moreover, the concentration for half-maximal inhibition (IC50) in [5] (setting [9]) is 48.1 µg/mL (≈ 135 µM); in series [5] (setting [10]), 9.8 µg/mL (≈ 27.5 µM); in series [7] (setting [11]), 44.1 µg/mL (≈ 124 µM); in series [7] (setting [12]), 1.9 µg/mL (≈ 5.33 µM).
